Experimental data published in article PMC7845594, “Novel Immune Modulators Enhance Caenorhabditis elegans Resistance to Multiple Pathogens” (mSphere, 2021).

System: glp-4(bn2) worms reared on RNAi, exposed to P. aeruginosa PA14
Test: P. aeruginosa liquid killing assay after RNAi knockdown
Type: in vivo, Caenorhabditis elegans
Settings: for Rescue in liquid killing after RNAi of a panel of phosphatases, kinases, transcription factors and most upregulated genes: Fig S4A; for Rescue in liquid killing after mdt-15(RNAi): P. aeruginosa PA14, LK56 at 32 µM
Source text: Based on the presence of effectors for well-known innate immune pathways in the transcriptional profiles of C. elegans exposed to LK molecules, we predicted that the compounds were acting through one or more of these pathways, despite the low levels of reporter activation. To test this, RNAi was used to knock down daf-16/FOXO, elt-2/GATA, pmk-1/p38 MAPK, atf-7/ATF7, or skn-1/Nrf2. Sterile, young adult glp-4(bn2) worms were then exposed to P. aeruginosa under liquid killing conditions in the presence of either DMSO or one of the immunostimulatory compounds.
RNAi conditions measured at different time points are represented by different graphs within the same panel. […] At least six wells, containing 20 worms each, were used per biological replicate to determine survival for each condition, and averages from at least three biological replicates are shown. *, P < 0.05; **, P < 0.01; ***, P < 0.001. P values were calculated using Student’s t test. Error bars represent standard error of the mean.
(A) Sterile, young adult glp-4(bn2) worms were reared on RNAi targeting irid-28, F38B2.4, T24B8.5, mex-5, Y105C5B.15, comt-4, or empty vector and then exposed to P. aeruginosa in the liquid killing assay. (B) Sterile, young adult glp-4(bn2) worms were reared on RNAi targeting met-2, osm-8, rde-4, oga-1, daf-2, lin-35, glp-1, dpy-10, or dpy-9 and then exposed to P. aeruginosa in the liquid killing assay. These genes were chosen using WormEXP with the criterion that gene expression after mutation would be similar (in terms of upregulation and downregulation) to exposure to LK56. Endpoints were collected at different times (to allow DMSO-treated worms to be approximately 30 to 50% dead). Assays collected at different time points are shown on different graphs. […] For each experiment, three biological replicates were performed, with each replicate comprised of six wells with 20 worms/well. Error bars represent standard error of the mean. *, P < 0.05; **, P < 0.01; ***, P < 0.001. P values were calculated using Student’s t test. Download FIG S4, PDF file, 0.2 MB.
Due to its strong rescue and unique transcriptional profile, we also created a panel of genes to test for LK56. […] This effect was specific, since mdt-15(RNAi) had no effect on the ability of LK35 or LK38 to rescue in this assay (Fig. 7B). Importantly, MDT-15 was also required for LK56-mediated rescue in E. faecalis and S. aureus pathogenesis assays (Fig. 7C).
FIG 7 Rescue from pathogens by LK56 requires […]. (A and B) Young adult glp-4(bn2) worms reared on vector or mdt-15(RNAi) were incubated with P. aeruginosa strain PA14 in the liquid killing assay with or without LK56 at 32 µM. (B) Young adult glp-4(bn2) worms reared on vector or mdt-15(RNAi) were exposed to P. aeruginosa PA14 in the liquid killing assay in the presence of LK35, LK38, or DMSO. (C) Young adult glp-4(bn2) worms reared on vector or mdt-15(RNAi) and then exposed to E. faecalis or S. aureus in liquid-based assays in the presence or absence of LK56 at 32 µM. (D) Young adult glp-4(bn2) worms reared on vector, nhr-49(RNAi), or nhr-45(RNAi) were incubated with P. aeruginosa PA14 in the liquid killing assay with or without LK56 at 32 µM. Each replicate included at least six wells, with approximately 20 worms per well. The data shown are mean values from a representative replicate. *, P < 0.05; **, P < 0.01; ***, P < 0.001. P values were calculated using Student’s t test. Error bars represent the standard error of the mean. At least three biological replicates were performed.
MDT-15 partners with at least two different nuclear hormone receptors, NHR-45 and NHR-49, to regulate gene expression.

| SMILES | Rescue in liquid killing after RNAi of a panel of phosphatases, kinases, transcription factors and most upregulated genes | Rescue in liquid killing after mdt-15(RNAi) | Rescue in liquid killing after nhr-49(RNAi) (P. aeruginosa PA14, 32 µM) |
| --- | --- | --- | --- |
| CNC(=O)Oc1c(Br)cc2sc(=O)oc2c1Br [LK34] | rescue was unchanged |  |  |
| CCN(CC)/N=N/c1ccc(C(=O)O)cc1 [LK35] | rescue was unchanged | no effect |  |
| CN(C)/N=N/c1ccc(-c2cn(Cc3ccccc3)cn2)cc1 [LK38] | rescue was unchanged | no effect |  |
| O=c1cc(CNc2ccc(Br)cc2)nc2sccn12 [LK56] |  | completely abolish LK56-dependent rescue | abolished compound rescue |
